Source: ChEMBL document CHEMBL4261616, “Discovery of heterocyclic replacements for the coumarin core of anti-tubercular FadD32 inhibitors” (Bioorg Med Chem Lett, 2018)
Values after ≈ are worked out from the molar mass of the structure shown.

System: Mycobacterium tuberculosis
Assay: Antimycobacterial activity against Mycobacterium tuberculosis H37Rv harboring FadD32 mutant after 6 days by resazurin dye based fluorescence assay
Format: functional

| Compound | MIC90 |
| --- | --- |
| Cc1cc2nccc(-c3ccccc3)c2c(C)c1-c1ccc(CN2CCOCC2)cc1 | 15.6 µM (≈ 6.37 µg/mL) |
| CNC(=O)c1cc(-c2ccccc2Cl)c2c(C)c(-c3ccncc3)c(C)cc2n1 | 6.25 µM (≈ 2.51 µg/mL) |
